Measured values: article PMC8305873, “Design and heterologous expression of a novel dimeric LL37 variant in Pichia pastoris” (Microbial Cell Factories, 2021)

What was measured:
[1] = test system: E. coli ATCC 078; assay type: cell-based, Escherichia coli; settings: Table 3, recombinant vs synthetic LG; mean ± SD of three independent experiments
Description: (§1) All experiments were conducted at least three different times.

[2] = test system: E. coli ATCC 25922; assay type: cell-based, Escherichia coli; settings: Table 3, recombinant vs synthetic LG; mean ± SD of three independent experiments
Description: as §1

[3] = test system: S. Typhimurium ATCC 14028; assay type: cell-based, Salmonella Typhimurium; settings: Table 3, recombinant vs synthetic LG; mean ± SD of three independent experiments
Description: as §1

[4] = test system: S. Typhimurium C 7731; assay type: cell-based, Salmonella Typhimurium; settings: Table 3, recombinant vs synthetic LG; mean ± SD of three independent experiments
Description: as §1

[5] = test system: P. aeruginosa ATCC 27853; assay type: cell-based, Pseudomonas aeruginosa; settings: Table 3, recombinant vs synthetic LG; mean ± SD of three independent experiments
Description: as §1

[6] = test system: S. aureus ATCC 25923; assay type: cell-based, Staphylococcus aureus; settings: Table 3, recombinant vs synthetic LG; mean ± SD of three independent experiments
Description: as §1

[7] = test system: S. aureus ATCC 29213; assay type: cell-based, Staphylococcus aureus; settings: Table 3, recombinant vs synthetic LG; mean ± SD of three independent experiments
Description: as §1

[8] = test system: S. epidermidis ATCC 12228; assay type: cell-based, Staphylococcus epidermidis; settings: Table 3, recombinant vs synthetic LG; mean ± SD of three independent experiments
Description: as §1

[9] = test system: S. faecalis ATCC 29212; assay type: cell-based, Streptococcus faecalis; settings: Table 3, recombinant vs synthetic LG; mean ± SD of three independent experiments
Description: as §1

[10] = test system: E. coli ATCC 25922; assay type: cell-based, Escherichia coli
Description: as §1
The salt ions were added to the BSA solution and configured into different final concentrations of salt ions (150 mM NaCl, 4.5 mM KCl, 6 µM NH4Cl, 8 µM ZnCl2, 1 mM MgCl2, 2 mM CaCl2, and 4 µM FeCl3) solutions. The method discribed as above was referred to determine the MIC value of rLG against E. coli ATCC 25922 in the presence of different concentrations of salt ions.

[11] = test system: human red blood cells; experiment: Hemolytic activity assay; assay type: cell-based; settings: at the highest peptide concentration (128 μM); human red blood cells, 37 °C 1 h; 0.1% Triton X-100 = 100%
Description: The collected blood of type B from healthy donor was centrifuged at 1000×g for 5 min to collect red blood cells. The red blood cells were then washed and resuspended in 10 mM PBS (pH 7.4). Fifty microliters of diluted red blood cells and an equal volume of peptide solution (2–128 µM) were incubated in a 96-well plate at 37 °C for 1 h. The red blood cell suspension treated with 0.1% Triton X-100 was used as a positive control (100% hemolysis), and untreated blood cell suspension was used as a negative control. The 96-well plate was centrifuged at 1000×g for 5 min at 4 °C, and then the supernatant was transferred to a new 96-well plate. The absorbance at OD570 was measured with a microplate reader.

[12] = test system: E. coli ATCC 25922; experiment: Cell wall (outer membrane) permeabilization, NPN uptake; assay type: cell-based, Escherichia coli; settings: at low concentrations (1, 2, and 4 µM); compared with melittin
Description: The cell wall permeability was determined by monitoring the fluorescence release of the fluorescent dye NPN (Sigma, USA). E. coli ATCC 25922 (OD600 = 0.2) and NPN (10 µM) were incubated in 5 mM HEPES buffer (containing 5 mM glucose, pH 7.4) for 30 min. Then, 100 µL of peptides (0.5–32 µM) and an equal volume of bacteria were added to a 96-well plate. An F-4500 fluorescence spectrophotometer (Hitachi, Japan) was used to detect the fluorescence intensity of different wells at a 350 nm excitation wavelength and 420 nm emission wavelength. The peptide-free and polymyxin B-containing fluorescence values were set as negative and positive controls.

[13] = test system: E. coli ATCC 25922; experiment: Cytoplasmic membrane depolarization, DiSC3-5; assay type: cell-based, Escherichia coli
Description: DiSC3-5 was used to measure the change in plasma membrane potential after peptide treatment. E. coli ATCC 25922 (OD600 = 0.05) was incubated with 0.4 µM DiSC3-5 and 100 mM K^+ in 5 mM HEPES buffer (containing 20 mM glucose, pH 7.4) until the fluorescence decreased stably. […] A fluorescence spectrophotometer (Infinite 200 pro, Tecan, China) was used to record the fluorescence values at an excitation light wavelength of 622 nm and emission light wavelength of 670 nm.

[14] = test system: E. coli ATCC 25922; experiment: Transmission electron microscopy (TEM); assay type: cell-based, Escherichia coli; settings: 1/2 × MIC (1 μM), 37 °C 1 h
Description: E. coli ATCC 25922 was cultured to the logarithmic growth phase and centrifuged to obtain the bacteria. The bacteria were resuspended twice in 0.01 M PBS (pH 7.4) and diluted to OD600 = 0.3. The rLG and bacteria were mixed to a final concentration of 1/2 × MIC (1 μM), and the bacteria without peptide were used as a control. Both samples were incubated at 37 °C for 1 h. The incubated sample was centrifuged at 2500×g for 5 min and washed three times with 0.01 M PBS. Two milliliters of 2.5% glutaraldehyde buffer was added to the bacterial pellet, and the suspension was gently blown and fixed at 4 °C overnight. The cells were washed with 0.01 M PBS and fixed in 1% osmate buffer for 1 h. Then, different concentrations of ethanol were used for gradient dehydration (50%, 70%, 85%, 95% and 100%). Finally, the sample was prepared into ultrathin sections through the process of soaking and embedding, and a Hitachi H-7650 TEM (Hitachi, Japan) was used for observation.

[15] = test system: E. coli ATCC 25922; assay type: cell-based, Escherichia coli; settings: in the absence of physiological salts and serum

FKRIVQRIKRFLRGGGGSFKRIVQRIKRFLR [rLG, recombinant LG expressed in P. pastoris as 6 × His-SUMO-LG and released by SUMO protease]
MIC [1]: 1.22 ± 0.19 µM | MIC [2]: 1.77 ± 0.19 µM | MIC [3]: 3.78 ± 0.44 µM | MIC [4]: 1.33 ± 0.25 µM | MIC [5]: 4.44 ± 1.78 µM | MIC [6]: 4.44 ± 1.78 µM | MIC [7]: 2.00 ± 0.00 µM | MIC [8]: 1.89 ± 0.11 µM | MIC [9]: 1.89 ± 0.11 µM | MIC under physiological salt concentration, FeCl3 ([10]; 4 µM FeCl3): 2 µM | MIC under physiological salt concentration, NH4Cl ([10]; 6 µM NH4Cl): 2 µM | MIC under physiological salt concentration, ZnCl2 ([10]; 8 µM ZnCl2): 2 µM | MIC under physiological salt concentration, MgCl2 ([10]; 1 mM MgCl2): 4 µM | MIC under physiological salt concentration, CaCl2 ([10]; 2 mM CaCl2): > 32 µM | MIC under physiological salt concentration, KCl ([10]; 4.5 mM KCl): 2 µM | MIC under physiological salt concentration, NaCl ([10]; 150 mM NaCl): 2 µM | MIC under physiological salt concentration, GM ([10]; geometric mean of the MIC values in the seven salt solutions): 3.62 µM | MIC under physiological salt concentration, Fold ([10]; increase of the MIC value (GM in salts) over the control without salts): 1.81 | hemolysis (blood cells destroyed) [11]: approximately 23% | ability to damage or destroy the bacterial cell wall (NPN fluorescence) [12]: better than that of melittin | plasma membrane potential (DiSC3-5 fluorescence intensity) ([13]; lowest tested concentration (1 µM)): caused a rapid increase in fluorescence intensity | damage to plasma membrane potential compared with melittin (DiSC3-5) ([13]; rLG compared with 16 µM melittin): stronger than that of 16 µM melittin | internal morphology by TEM [14]: the membrane of E. coli was destroyed, and the cell contents flowed out | MIC, Control [15]: 2 µM
